Reference: ChEMBL document CHEMBL4507276 (2021)

Assays:
[1] = molecular target: T1, Alpha-2A adrenergic receptor (Homo sapiens) (UniProt P08913); conditions: Compound concentration 10.0 uM
T1 sequence (whole entry): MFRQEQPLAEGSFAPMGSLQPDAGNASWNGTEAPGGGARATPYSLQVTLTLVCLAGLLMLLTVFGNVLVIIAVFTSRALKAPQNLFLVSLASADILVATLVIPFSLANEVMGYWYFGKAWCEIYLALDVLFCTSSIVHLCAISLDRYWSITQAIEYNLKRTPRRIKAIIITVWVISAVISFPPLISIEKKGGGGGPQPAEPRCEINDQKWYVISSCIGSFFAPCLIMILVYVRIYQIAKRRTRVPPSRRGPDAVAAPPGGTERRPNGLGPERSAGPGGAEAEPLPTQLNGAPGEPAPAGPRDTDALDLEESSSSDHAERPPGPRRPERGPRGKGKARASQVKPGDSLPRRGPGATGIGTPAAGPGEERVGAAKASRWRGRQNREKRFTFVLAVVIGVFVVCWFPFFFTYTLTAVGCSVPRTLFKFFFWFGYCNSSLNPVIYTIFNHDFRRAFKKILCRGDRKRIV

[2] = molecular target: T2, Alpha-1B adrenergic receptor (Homo sapiens) (UniProt P35368); conditions: Compound concentration 10.0 uM
T2 sequence (whole entry): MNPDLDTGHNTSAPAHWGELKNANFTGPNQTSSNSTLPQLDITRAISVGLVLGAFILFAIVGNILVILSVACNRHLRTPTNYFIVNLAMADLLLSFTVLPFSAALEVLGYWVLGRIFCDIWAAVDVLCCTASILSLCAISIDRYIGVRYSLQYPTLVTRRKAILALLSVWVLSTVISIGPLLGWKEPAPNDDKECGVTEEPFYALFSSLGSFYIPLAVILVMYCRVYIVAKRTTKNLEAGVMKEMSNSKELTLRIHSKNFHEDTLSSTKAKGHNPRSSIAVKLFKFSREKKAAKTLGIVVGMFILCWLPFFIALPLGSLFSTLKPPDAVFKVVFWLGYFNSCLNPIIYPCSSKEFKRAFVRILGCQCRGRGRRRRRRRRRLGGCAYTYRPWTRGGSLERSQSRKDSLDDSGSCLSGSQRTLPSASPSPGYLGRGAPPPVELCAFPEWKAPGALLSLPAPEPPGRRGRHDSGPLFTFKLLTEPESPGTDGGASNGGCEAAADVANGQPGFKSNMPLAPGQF

[3] = molecular target: Eukaryotic translation initiation factor 2-alpha kinase 1 (Homo sapiens) (UniProt Q9BQI3); conditions: Compound concentration 1000.0 nM
[4] = molecular target: Maternal embryonic leucine zipper kinase (Homo sapiens) (UniProt Q14680); conditions: Compound concentration 1000.0 nM
[5] = molecular target: T3, Serine/threonine-protein kinase NLK (Homo sapiens) (UniProt Q9UBE8); conditions: Compound concentration 1000.0 nM
T3 sequence (whole entry): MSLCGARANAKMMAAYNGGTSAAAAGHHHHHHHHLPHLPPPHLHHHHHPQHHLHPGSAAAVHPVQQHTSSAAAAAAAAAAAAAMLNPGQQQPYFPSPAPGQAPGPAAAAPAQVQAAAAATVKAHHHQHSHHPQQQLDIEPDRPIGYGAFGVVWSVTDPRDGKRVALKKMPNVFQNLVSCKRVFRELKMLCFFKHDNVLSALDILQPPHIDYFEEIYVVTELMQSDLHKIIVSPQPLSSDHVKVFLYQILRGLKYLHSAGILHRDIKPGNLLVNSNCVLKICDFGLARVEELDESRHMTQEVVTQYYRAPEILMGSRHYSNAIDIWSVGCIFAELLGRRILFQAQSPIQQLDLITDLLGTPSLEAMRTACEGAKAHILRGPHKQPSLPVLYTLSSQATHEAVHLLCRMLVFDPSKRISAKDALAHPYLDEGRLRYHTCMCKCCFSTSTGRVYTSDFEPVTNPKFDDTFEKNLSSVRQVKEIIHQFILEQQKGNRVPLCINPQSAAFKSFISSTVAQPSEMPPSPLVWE

[6] = system: T4, Receptor-type tyrosine-protein kinase FLT3 (Homo sapiens), P36888 [D835Y]; conditions: Compound concentration 1000.0 nM
T4 sequence (whole entry): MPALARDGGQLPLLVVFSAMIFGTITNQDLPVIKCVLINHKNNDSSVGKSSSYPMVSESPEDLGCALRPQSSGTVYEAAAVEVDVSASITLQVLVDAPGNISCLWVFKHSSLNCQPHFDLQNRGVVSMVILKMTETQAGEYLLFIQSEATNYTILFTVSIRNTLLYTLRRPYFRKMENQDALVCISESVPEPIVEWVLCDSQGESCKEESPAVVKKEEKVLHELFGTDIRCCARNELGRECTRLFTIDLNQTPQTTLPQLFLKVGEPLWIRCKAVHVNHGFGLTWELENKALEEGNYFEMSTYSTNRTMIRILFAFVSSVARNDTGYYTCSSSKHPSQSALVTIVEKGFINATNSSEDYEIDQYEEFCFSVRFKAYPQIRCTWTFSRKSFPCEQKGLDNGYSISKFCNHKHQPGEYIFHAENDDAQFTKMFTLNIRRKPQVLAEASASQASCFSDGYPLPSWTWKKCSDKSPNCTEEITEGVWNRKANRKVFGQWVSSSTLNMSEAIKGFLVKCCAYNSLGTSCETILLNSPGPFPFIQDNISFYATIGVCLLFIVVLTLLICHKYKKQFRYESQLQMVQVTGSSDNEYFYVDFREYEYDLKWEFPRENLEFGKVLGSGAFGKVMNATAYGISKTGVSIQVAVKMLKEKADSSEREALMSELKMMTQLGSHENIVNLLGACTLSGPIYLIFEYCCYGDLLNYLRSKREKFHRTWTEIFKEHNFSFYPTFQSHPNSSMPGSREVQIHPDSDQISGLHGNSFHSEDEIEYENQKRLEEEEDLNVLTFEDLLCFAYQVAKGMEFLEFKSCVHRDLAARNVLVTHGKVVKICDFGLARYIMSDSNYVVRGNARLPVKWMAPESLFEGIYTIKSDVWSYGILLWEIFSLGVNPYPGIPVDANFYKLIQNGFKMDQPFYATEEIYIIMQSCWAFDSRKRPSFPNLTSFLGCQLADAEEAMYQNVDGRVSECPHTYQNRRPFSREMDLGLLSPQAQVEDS

[7] = system: Tyrosine-protein kinase ABL1 (Homo sapiens), P00519 [H396P]; conditions: Compound concentration 1000.0 nM
[8] = molecular target: Dual specificity protein kinase CLK2 (Homo sapiens) (UniProt P49760); conditions: Compound concentration 1000.0 nM
[9] = molecular target: Mitogen-activated protein kinase kinase kinase 4 (Homo sapiens) (UniProt Q9Y6R4); conditions: Compound concentration 1000.0 nM
[10] = molecular target: Tyrosine-protein kinase JAK1 (Homo sapiens) (UniProt P23458); conditions: Compound concentration 1000.0 nM
Tyrosine-protein kinase JAK1 (Homo sapiens), sequence (P23458 whole entry): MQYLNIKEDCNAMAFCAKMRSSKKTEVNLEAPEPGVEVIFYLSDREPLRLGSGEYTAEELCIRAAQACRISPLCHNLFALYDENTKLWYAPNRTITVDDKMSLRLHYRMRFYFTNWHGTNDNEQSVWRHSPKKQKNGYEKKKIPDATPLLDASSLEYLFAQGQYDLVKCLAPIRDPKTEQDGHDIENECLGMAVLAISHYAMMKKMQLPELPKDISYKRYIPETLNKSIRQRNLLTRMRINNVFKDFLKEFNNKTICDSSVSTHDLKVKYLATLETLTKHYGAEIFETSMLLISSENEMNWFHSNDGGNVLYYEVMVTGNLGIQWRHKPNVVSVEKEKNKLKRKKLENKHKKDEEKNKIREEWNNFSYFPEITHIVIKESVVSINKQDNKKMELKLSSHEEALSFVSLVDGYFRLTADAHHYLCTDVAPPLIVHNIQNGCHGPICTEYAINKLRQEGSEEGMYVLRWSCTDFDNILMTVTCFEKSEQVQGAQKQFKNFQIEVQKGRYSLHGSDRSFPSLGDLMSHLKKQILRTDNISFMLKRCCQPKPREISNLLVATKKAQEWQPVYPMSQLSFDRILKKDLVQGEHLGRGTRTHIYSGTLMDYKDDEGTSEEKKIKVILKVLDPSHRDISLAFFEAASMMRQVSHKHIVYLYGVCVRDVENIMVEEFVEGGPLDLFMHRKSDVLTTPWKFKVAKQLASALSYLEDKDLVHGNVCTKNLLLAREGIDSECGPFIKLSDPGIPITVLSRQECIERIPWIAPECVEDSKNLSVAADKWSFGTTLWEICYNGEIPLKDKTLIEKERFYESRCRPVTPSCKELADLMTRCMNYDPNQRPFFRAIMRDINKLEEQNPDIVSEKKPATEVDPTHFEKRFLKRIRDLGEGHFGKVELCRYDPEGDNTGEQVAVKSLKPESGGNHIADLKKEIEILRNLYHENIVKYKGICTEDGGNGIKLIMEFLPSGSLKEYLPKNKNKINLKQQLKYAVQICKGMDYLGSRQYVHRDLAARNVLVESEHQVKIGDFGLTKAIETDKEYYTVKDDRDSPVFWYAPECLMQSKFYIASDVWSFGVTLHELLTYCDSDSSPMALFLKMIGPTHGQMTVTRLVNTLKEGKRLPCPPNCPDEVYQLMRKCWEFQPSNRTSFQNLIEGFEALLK

Mitogen-activated protein kinase kinase kinase 4 (Homo sapiens), sequence (Q9Y6R4 whole entry): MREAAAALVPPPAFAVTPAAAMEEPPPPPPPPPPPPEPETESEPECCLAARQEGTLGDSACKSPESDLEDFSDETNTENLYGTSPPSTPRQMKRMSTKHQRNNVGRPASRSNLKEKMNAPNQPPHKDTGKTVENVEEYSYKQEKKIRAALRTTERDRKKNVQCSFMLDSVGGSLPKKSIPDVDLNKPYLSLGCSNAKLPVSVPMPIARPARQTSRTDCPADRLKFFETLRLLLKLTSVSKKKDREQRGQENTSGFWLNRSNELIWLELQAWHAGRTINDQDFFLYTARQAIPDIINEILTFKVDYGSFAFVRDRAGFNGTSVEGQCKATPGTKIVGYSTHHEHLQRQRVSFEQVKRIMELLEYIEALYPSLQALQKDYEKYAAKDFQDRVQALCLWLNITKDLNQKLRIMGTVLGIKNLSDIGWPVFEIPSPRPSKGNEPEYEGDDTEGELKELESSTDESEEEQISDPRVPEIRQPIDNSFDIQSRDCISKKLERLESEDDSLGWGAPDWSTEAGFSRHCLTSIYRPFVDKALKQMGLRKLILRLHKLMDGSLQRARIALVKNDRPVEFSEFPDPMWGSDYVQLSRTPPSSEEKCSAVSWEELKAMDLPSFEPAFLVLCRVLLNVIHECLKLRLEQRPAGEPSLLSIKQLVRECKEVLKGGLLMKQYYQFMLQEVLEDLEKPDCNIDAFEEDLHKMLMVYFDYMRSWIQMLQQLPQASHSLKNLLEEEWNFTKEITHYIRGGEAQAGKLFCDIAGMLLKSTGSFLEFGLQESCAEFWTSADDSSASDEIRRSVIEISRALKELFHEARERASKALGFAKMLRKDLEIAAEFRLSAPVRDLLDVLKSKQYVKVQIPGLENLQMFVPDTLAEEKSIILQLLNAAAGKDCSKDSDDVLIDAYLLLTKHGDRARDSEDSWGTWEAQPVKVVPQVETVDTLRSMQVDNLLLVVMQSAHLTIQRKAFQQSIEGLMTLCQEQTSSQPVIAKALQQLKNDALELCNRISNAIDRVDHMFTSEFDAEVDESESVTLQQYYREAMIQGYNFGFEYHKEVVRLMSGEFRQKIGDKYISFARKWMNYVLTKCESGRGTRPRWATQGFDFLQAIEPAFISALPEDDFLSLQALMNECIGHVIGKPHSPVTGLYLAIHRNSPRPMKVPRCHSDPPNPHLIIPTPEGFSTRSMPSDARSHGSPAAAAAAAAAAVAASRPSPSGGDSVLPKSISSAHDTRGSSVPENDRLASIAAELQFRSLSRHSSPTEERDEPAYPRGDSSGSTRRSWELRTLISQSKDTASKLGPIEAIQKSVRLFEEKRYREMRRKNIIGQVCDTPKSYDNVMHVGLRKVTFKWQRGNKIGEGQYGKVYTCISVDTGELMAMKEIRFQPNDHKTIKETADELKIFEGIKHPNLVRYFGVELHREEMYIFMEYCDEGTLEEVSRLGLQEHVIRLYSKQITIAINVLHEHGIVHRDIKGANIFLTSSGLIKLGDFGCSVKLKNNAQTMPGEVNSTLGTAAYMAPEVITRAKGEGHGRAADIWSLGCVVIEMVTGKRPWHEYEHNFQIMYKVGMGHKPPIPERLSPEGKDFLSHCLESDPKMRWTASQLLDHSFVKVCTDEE
Dual specificity protein kinase CLK2 (Homo sapiens), sequence (P49760 whole entry, looked up): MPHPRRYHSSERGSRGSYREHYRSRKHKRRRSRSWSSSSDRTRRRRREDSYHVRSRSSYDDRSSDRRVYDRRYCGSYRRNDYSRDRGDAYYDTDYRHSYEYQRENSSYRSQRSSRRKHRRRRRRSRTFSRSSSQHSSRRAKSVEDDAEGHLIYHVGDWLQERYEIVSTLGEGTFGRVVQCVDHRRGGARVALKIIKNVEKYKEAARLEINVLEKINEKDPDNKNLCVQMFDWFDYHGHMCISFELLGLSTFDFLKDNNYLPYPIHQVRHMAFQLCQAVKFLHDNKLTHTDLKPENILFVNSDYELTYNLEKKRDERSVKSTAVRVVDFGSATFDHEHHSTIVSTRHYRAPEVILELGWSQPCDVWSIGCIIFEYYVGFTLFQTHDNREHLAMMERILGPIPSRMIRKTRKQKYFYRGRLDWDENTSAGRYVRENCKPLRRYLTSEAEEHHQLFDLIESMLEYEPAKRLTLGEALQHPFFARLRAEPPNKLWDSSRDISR
Eukaryotic translation initiation factor 2-alpha kinase 1 (Homo sapiens), sequence (Q9BQI3 whole entry): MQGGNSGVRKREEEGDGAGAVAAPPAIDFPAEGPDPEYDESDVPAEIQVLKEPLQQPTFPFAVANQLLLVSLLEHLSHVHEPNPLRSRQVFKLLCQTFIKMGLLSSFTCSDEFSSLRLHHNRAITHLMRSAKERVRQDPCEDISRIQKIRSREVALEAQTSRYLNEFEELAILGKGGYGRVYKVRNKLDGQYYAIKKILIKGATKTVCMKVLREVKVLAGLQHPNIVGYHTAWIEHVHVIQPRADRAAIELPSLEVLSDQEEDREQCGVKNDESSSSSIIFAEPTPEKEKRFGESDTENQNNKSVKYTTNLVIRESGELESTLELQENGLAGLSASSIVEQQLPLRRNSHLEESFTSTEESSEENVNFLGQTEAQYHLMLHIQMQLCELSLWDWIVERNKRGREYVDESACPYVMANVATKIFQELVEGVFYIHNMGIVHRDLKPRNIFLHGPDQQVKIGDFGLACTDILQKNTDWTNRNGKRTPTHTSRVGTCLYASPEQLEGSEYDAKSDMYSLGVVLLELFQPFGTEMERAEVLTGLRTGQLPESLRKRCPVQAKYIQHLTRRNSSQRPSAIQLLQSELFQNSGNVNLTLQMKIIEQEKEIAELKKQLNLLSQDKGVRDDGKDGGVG
Maternal embryonic leucine zipper kinase (Homo sapiens), sequence (Q14680 whole entry, looked up): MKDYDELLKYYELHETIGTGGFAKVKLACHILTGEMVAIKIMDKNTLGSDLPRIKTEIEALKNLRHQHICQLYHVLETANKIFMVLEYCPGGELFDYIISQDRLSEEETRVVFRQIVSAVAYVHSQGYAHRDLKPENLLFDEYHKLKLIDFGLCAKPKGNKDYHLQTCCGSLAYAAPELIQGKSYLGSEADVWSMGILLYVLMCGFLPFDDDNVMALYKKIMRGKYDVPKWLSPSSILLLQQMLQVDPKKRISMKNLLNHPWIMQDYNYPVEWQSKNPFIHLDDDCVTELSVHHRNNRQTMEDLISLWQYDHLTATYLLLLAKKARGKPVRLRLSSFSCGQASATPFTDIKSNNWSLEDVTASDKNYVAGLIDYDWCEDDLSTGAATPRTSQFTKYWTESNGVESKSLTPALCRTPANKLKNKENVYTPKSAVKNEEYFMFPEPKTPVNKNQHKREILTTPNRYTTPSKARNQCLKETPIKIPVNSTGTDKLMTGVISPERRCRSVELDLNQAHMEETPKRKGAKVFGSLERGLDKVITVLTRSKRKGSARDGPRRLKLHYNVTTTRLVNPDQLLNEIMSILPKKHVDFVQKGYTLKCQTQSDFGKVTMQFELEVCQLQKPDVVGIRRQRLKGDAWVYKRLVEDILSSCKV

CN(C)C(=O)Cn1cc(-c2nc(C3(c4ccc(-c5cnc(N)nc5)cc4)CC3)no2)cn1 [BI 0153]
inactive: inhibition [1] 22.4% | inhibition [2] 5.11% | residual activity [3] 88% | residual activity [4] 92% | residual activity [5] 94% | residual activity [6] 100% | residual activity [7] 100% | residual activity [8] 94% | residual activity [9] 92% | residual activity [10] 76%

CN(C)C(=O)Cn1cc(-c2nc([C@@](C)(c3ccc(-c4cnc(N)nc4)cc3)C3CC3)no2)cn1 [BI 665915]
inactive: inhibition [1] -3.33% | inhibition [2] 2.84% | residual activity [3] 96% | residual activity [4] 87% | residual activity [5] 95% | residual activity [6] 85% | residual activity [7] 80% | residual activity [8] 96% | residual activity [9] 91% | residual activity [10] 100%
